Reference: patent US9420794B2, “Herbicidal composition” (ISHIHARA SANGYO KAISHA, LTD., priority 2012, dated 2016)
Read-outs that look alike come from different tables or passages of the source.

Experiments:
Format in all cases: in vivo
[1] = test system: velvetleaf (Abutilon theophrasti Medic.); assay: Test Example 1: pot test, soil treatment, growth inhibition of velvetleaf; conditions: read-out: Growth inhibition rate of velvetleaf (%) Measured value
Source text: Upland field soil was put into a 1/300,000 ha pot, and seeds of velvetleaf (Abutilon theophrasti Medic.) were sown. On the next day, predetermined amounts of a flowable containing nicosulfuron as an active ingredient (tradename: ONEHOPE NYUZAI, manufactured by Ishihara Sangyo Kaisha, Ltd.), an emulsifiable concentrate containing dimethenamid-P as an active ingredient (tradename: Spectrum, manufactured by BASF) and a flowable containing topramezone as an active ingredient (tradename: Clio, manufactured by BASF) were diluted with water (in an amount corresponding to 1,000 L/ha) and applied for soil treatment by a small sprayer.
On the 28th day after treatment, the state of growth of the velvetleaf was visually observed to determine the growth inhibition rate (%) in accordance with the following evaluation standard. The growth inhibition rate (%) (measured value) and the growth inhibition rate (%) (calculated value) calculated by the Colby's formula are shown in Table 1.
(§1) Growth inhibition rate (%)=0 (equivalent to the non-treated area) to 100 (complete kill)

[2] = test system: korean lespedeza (Kummerowia stipulacea (Maxim.) Makino); assay: Test Example 2: pot test, soil treatment, growth inhibition of korean lespedeza; conditions: read-out: Growth inhibition rate of korean lespedeza (%) Measured value
Procedure: as §1
(§2) Upland field soil was put into a 1/160,000 ha pot, and seeds of korean lespedeza (Kummerowia stipulacea (Maxim.) Makino) were sown. On the next day, predetermined amounts of ONEHOPE NYUZAI (tradename), Clio (tradename) and Spectrum (tradename) were diluted with water (in an amount corresponding to 300 L/ha) and applied for soil treatment by a small sprayer.
(§3) On the 14th day after treatment, the state of growth of the korean lespedeza was visually observed to determine the growth inhibition rate (%). The growth inhibition rate (%) (measured value) and the growth inhibition rate (%) calculated in the same manner as in the above Test Example 1 are shown in Table 2.

[3] = test system: wild oat (Avena fatua L.); assay: Test Example 4: pot test, soil treatment, growth inhibition of wild oat; conditions: read-out: Growth inhibition rate of wild oat (%) Measured value
Procedure: as §1
as §2, with “wild oat (Avena fatua L.)” for “korean lespedeza (Kummerowia stipulacea (Maxim.) Makino)”
as §3, with “28 th” for “14th”, “wild oat” for “korean lespedeza”, “4.” for “2.”

[4] = test system: annual ragweed (Ambrosia artemisiifolia L.); assay: Test Example 3: pot test, foliar treatment, growth inhibition of annual ragweed; conditions: read-out: Growth inhibition rate of annual ragweed (%) Measured value
Procedure: as §1
Upland field soil was put into a 1/1,000,000 ha pot, and seeds of annual ragweed (Ambrosia artemisiifolia L.) were sown. When the annual ragweed reached 6.0 to 8.0-leaf stage, predetermined amounts of ONEHOPE NYUZAI (tradename), Clio (tradename) and Spectrum (tradename) were diluted with water (in an amount corresponding to 300 L/ha) and applied for foliar treatment by a small sprayer.
as §3, with “20 th” for “14th”, “annual ragweed” for “korean lespedeza”, “3.” for “2.”

COc1cc(OC)nc(NC(=O)NS(=O)(=O)c2ncccc2C(=O)N(C)C)n1 [Nicosulfuron, 2-(4,6-dimethoxypyrimidin-2-ylcarbamoylsulfamoyl)-N,N-dimethylnicotinamide]
inhibition at 15 g/ha ([1]; dose 15 g/ha, soil treatment, 28th day after treatment): 0%
inhibition at 10 g/ha ([2]; dose 10 g/ha, soil treatment, 14th day after treatment): 0%
inhibition at 100 g/ha ([2]; dose 100 g/ha, soil treatment, 14th day after treatment): 10%
inhibition at 100 g/ha ([3]; dose 100 g/ha, soil treatment, 28th day after treatment): 60%
inhibition at 30 g/ha ([4]; dose 30 g/ha, foliar treatment at 6.0 to 8.0-leaf stage, 20th day after treatment): 13%

Cc1c(C(=O)c2cnn(C)c2O)ccc(S(C)(=O)=O)c1C1=NOCC1 [Topramezone, [3-(4,5-dihydro-1,2-oxazol-3-yl)-4-mesyl-o-tolyl](5-hydroxy-1-methylpyrazol-4-yl)methanone]
inhibition at 20 g/ha ([1]; soil): 60%
inhibition at 15 g/ha ([2]; soil): 0%
inhibition at 100 g/ha ([2]; soil): 10%
inhibition at 15 g/ha ([3]; soil): 0%
inhibition at 20 g/ha ([4]; foliar): 40%
inhibition at 50 g/ha ([4]; foliar): 65%

COC[C@H](C)N(C(=O)CCl)c1c(C)csc1C [Dimethenamid-P, (S)-2-chloro-N-(2,4-dimethyl-3-thienyl)-N-(2-methoxy-1-methylethyl)acetamide]
inhibition at 500 g/ha ([1]; dose 500 g/ha, soil treatment, 28th day after treatment): 20%
inhibition at 250 g/ha ([2]; dose 250 g/ha, soil treatment, 14th day after treatment): 30%
inhibition at 1500 g/ha ([2]; dose 1500 g/ha, soil treatment, 14th day after treatment): 30%
inhibition at 250 g/ha ([3]; dose 250 g/ha, soil treatment, 28th day after treatment): 60%
inhibition at 500 g/ha ([4]; dose 500 g/ha, foliar treatment at 6.0 to 8.0-leaf stage, 20th day after treatment): 0%
inhibition at 1000 g/ha ([4]; dose 1000 g/ha, foliar treatment at 6.0 to 8.0-leaf stage, 20th day after treatment): 0%
